From ChEMBL document CHEMBL1129474, “Quinazoline antifolates thymidylate synthase inhibitors: lipophilic analogues with modification to the C2-methyl substituent” (J Med Chem, 1996)

What was measured:
[1] = Relative resistant ratio of compound as L1210:1565 IC50 over L1210 IC50; type: functional
L1210 = test: In vitro inhibitory activity against L1210 cell growth; type: functional, cell-based; settings: Mus musculus
Thymidylate synthase = Thymidylate synthase (Mus musculus, UniProt P07607); test: In vitro inhibitory activity against thymidylate synthase partially purified from L1210 mouse leukemia cells; type: cell-based
Chain of Thymidylate synthase (P07607 whole entry): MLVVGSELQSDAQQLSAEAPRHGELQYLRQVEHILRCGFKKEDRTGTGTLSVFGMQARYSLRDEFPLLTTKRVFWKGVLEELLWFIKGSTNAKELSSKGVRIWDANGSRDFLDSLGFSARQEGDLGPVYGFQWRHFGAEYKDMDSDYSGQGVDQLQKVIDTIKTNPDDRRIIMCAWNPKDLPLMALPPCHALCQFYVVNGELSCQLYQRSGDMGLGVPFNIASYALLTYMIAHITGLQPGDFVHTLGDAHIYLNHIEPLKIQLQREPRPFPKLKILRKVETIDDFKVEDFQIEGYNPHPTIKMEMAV

Row | IC50 (L1210) [µM] | IC50 (Thymidylate synthase) [µM] | Structure (SMILES) | Ratio [1]
1 | 0.58 | 0.11 | C#CCN(Cc1cc2c(O)nc(CN3CCN(C)CC3)nc2cc1C)c1ccc(C(=O)NCc2cccc([N+](=O)[O-])c2)c(F)c1 | 1.1
2 | 2.2 | 0.84 | C#CCN(Cc1ccc2nc(CSc3nccc(N)n3)nc(O)c2c1)c1ccc(C(=O)NCc2cccc([N+](=O)[O-])c2)cc1 | –
3 | 1.9 | 0.38 | C#CCN(Cc1ccc2nc(CN3CCOCC3)nc(O)c2c1)c1ccc(C(=O)NCc2cccc([N+](=O)[O-])c2)cc1 | –
4 | 0.68 | – | C#CCN(Cc1cc2c(O)nc(CN(C)C)nc2cc1C)c1ccc(C(=O)NCc2cccc([N+](=O)[O-])c2)c(F)c1 | 0.76
5 | 0.076 | 0.056 | Cc1nc2cc(C)c(CN(C)c3ccc(C(=O)NCc4cccc([N+](=O)[O-])c4)c(F)c3)cc2c(=O)[nH]1 | –
6 | 7.8 | 4.2 | C#CCN(Cc1ccc2nc(CNC)nc(O)c2c1)c1ccc(C(=O)NCc2cccc([N+](=O)[O-])c2)cc1 | –
7 | 0.7 | 0.08 | Cc1cc2nc(CO)nc(O)c2cc1CN(C)c1ccc(C(=O)NCc2cccc([N+](=O)[O-])c2)c(F)c1 | –
8 | 5 | 0.82 | C#CCN(Cc1ccc2nc(CN(C)CCN(C)C)nc(O)c2c1)c1ccc(C(=O)NCc2cccc([N+](=O)[O-])c2)cc1 | –
9 | – | 0.14 | C#CCN(Cc1cc2c(=O)[nH]c(CN(C)C)nc2cc1C)c1ccc(C(=O)NCc2cccc([N+](=O)[O-])c2)c(F)c1 | –
10 | 0.58 | 0.084 | Cc1cc2nc(CN(C)C)nc(O)c2cc1CN(C)c1ccc(C(=O)NCc2cccc([N+](=O)[O-])c2)c(F)c1 | –
11 | 0.15 | – | C#CCN(Cc1ccc2nc(C)nc(O)c2c1)c1ccc(C(=O)NC(CCC(=O)O)C(=O)O)cc1 (configuration not stated) | –
12 | 12 | 3.3 | C#CCN(Cc1ccc2nc(CSc3nccc(O)n3)nc(O)c2c1)c1ccc(C(=O)NCc2cccc([N+](=O)[O-])c2)cc1 | –
13 | 2.7 | 0.62 | C#CCN(Cc1ccc2nc(CN(C)C)nc(O)c2c1)c1ccc(C(=O)NCc2cccc([N+](=O)[O-])c2)cc1 | –
14 | 0.64 | – | C#CCN(Cc1cc2c(O)nc(CSc3ncccn3)nc2cc1C)c1ccc(C(=O)NCc2cccc([N+](=O)[O-])c2)c(F)c1 | 0.65
15 | 14 | 1.04 | C#CCN(Cc1ccc2nc(CSc3nc(N)cc(O)n3)nc(O)c2c1)c1ccc(C(=O)NCc2cccc([N+](=O)[O-])c2)cc1 | –
16 | 7.8 | 0.16 | C#CCN(Cc1cc2c(O)nc(CN(CCO)CCO)nc2cc1C)c1ccc(C(=O)NCc2cccc([N+](=O)[O-])c2)c(F)c1 | –
17 | > 20 | 0.18 | C#CCN(Cc1ccc2nc(CNS(C)(=O)=O)nc(O)c2c1)c1ccc(C(=O)NCc2cccc([N+](=O)[O-])c2)cc1 | –
18 | 2.4 | 1.21 | C#CCN(Cc1ccc2nc(CCl)nc(O)c2c1)c1ccc(C(=O)NCc2cccc([N+](=O)[O-])c2)cc1 | –
19 | > 20 | 0.028 | Cc1cc2nc(CN3CCN(C)CC3)nc(O)c2cc1CN(C)c1ccc(C(=O)NC(CCC(=O)O)C(=O)O)c(F)c1 (configuration not stated) | –
20 | 1.4 | – | C#CCN(Cc1ccc2nc(C)nc(O)c2c1)c1ccc(C(=O)NCc2cccc([N+](=O)[O-])c2)cc1 | 0.3
21 | 100 | – | C#CCN(Cc1ccc2nc(CSc3ncccn3)nc(O)c2c1)c1ccc(C(=O)NC(CCC(=O)O)C(=O)O)cc1 (configuration not stated) | –
22 | > 20 | > 1.7 | C#CCN(Cc1ccc2nc(CN)nc(O)c2c1)c1ccc(C(=O)NCc2cccc([N+](=O)[O-])c2)cc1 | –
23 | 6.7 | 0.64 | C#CCN(Cc1ccc2nc(COCCOC)nc(O)c2c1)c1ccc(C(=O)NCc2cccc([N+](=O)[O-])c2)cc1 | –
24 | 0.7 | 0.072 | C#CCN(Cc1cc2c(O)nc(CO)nc2cc1C)c1ccc(C(=O)NCc2cccc([N+](=O)[O-])c2)c(F)c1 | 0.17
25 | 0.26 | – | C#CCN(Cc1cc2c(O)nc(C)nc2cc1C)c1ccc(C(=O)NCc2cccc([N+](=O)[O-])c2)c(F)c1 | 1
26 | 0.95 | 0.2 | C#CCN(Cc1cc2c(O)nc(CN(C)CCN(C)C)nc2cc1C)c1ccc(C(=O)NCc2cccc([N+](=O)[O-])c2)c(F)c1 | –
27 | 4.8 | 0.3 | C#CCN(Cc1ccc2nc(CO)nc(O)c2c1)c1ccc(C(=O)NCc2cccc([N+](=O)[O-])c2)cc1 | –
28 | 11 | 0.38 | C#CCN(Cc1ccc2nc(CC#N)nc(O)c2c1)c1ccc(C(=O)NCc2cccc([N+](=O)[O-])c2)cc1 | –
29 | – | 0.11 | C#CCN(Cc1cc2c(=O)[nH]c(CSc3ncccn3)nc2cc1C)c1ccc(C(=O)NCc2cccc([N+](=O)[O-])c2)c(F)c1 | –

Row | Structure (SMILES) | IC50 (L1210) [µM] | IC50 (Thymidylate synthase) [µM] | Ratio [1]
30 | C#CCN(Cc1ccc2nc(CSc3ncccn3)nc(O)c2c1)c1ccc(C(=O)NCc2cccc([N+](=O)[O-])c2)cc1 | 2 | 0.48 | –
31 | C#CCN(Cc1ccc2nc(C)nc(O)c2c1)c1ccc(C(=O)NC(Cc2cccc([N+](=O)[O-])c2)C(=O)O)cc1 (configuration not stated) | 9 | 0.01 | –
32 | C#CCN(Cc1ccc2nc(CN3CCC(O)C3)nc(O)c2c1)c1ccc(C(=O)NCc2cccc([N+](=O)[O-])c2)cc1 (configuration not stated) | 9 | 0.6 | –
33 | C#CCN(Cc1cc2c(O)nc(CN3CCOCC3)nc2cc1C)c1ccc(C(=O)NCc2cccc([N+](=O)[O-])c2)c(F)c1 | 0.34 | 0.1 | 1.1
34 | C#CCN(Cc1ccc2nc(CN3CCN(C)CC3)nc(O)c2c1)c1ccc(C(=O)NCc2cccc([N+](=O)[O-])c2)cc1 | 5.3 | 0.9 | –
